Experimental data taken from article PMC9250534, “Synthesis and direct assay of large macrocycle diversities by combinatorial late-stage modification at picomole scale” (Nature Communications, 2022).
Numbered stars: 1 amine (or outer) side, 2 acyl side, 3 side chain; on linkers, the order of the positions; unused ones are H or OH. Bridge positions count the residues as written; N and C are the ends. Square brackets hold non-standard residues; d marks the D form. Peptide text beside a SMILES is read from it. * marks the point of attachment. ξ: configuration not given here. ξPro(4-NHCO(5-Cl-2-thienyl)) = O=C(NC1CNC(C(=O)O)C1)c1ccc(Cl)s1; 2Thenoyl(5-Cl) = O=C(c1ccc(Cl)s1)*; Cysteamide = C(CS[*:3])N[*:1]; dDap = NC[C@@H](N)C(=O)O; Api = NC1(C(=O)O)CCNCC1; Dap = NC[CH](N)C(=O)O; Mpa = O=C(O)CCS

Target: T1, thrombin (Homo sapiens, UniProt P00734)
T1 construct: consists of two polypeptide chains of 36 (light chain) and 259 amino acid
Experiment: Thrombin inhibition screen of crude macrocycle reactions (residual thrombin activity, fluorogenic substrate Z-Gly-Gly-Arg-AMC)
Type: biochemical
Conditions: 10 µM macrocycle concentration, macrocycles containing acid 14, crude reaction; for % thrombin activity, Repeat screen: replicate reaction and screen
In short: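 Residual activity was measured as the AMC release rate after adding 50 μM Z-Gly-Gly-Arg-AMC. This followed a 10-min room-temperature preincubation of 2 nM thrombin with 10 μM single macrocycles in pH 7.4 Tris buffer (0.6% DMSO). Percent inhibition was taken against the mean slope of DMSO controls.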

How did the “% thrombin activity, Original screen” value turn out when `CC(C)C[C@@H]1NC(=O)CCSSCCNC(=O)c2cccc(c2)CNC(=O)[C@H](CCCNC(=O)c2ccc(Cl)s2)NC1=O` [X L D2 B5] was run?
The value was 100.1%.

What about the “% thrombin activity, Repeat screen” value of the same molecule?
The value was 95.2%.

For `CC(C)C[C@@H]1NC(=O)CCSSCCNC(=O)[C@@H]2CCCN2C(=O)[C@@H](CNC(=O)c2ccc(Cl)s2)NC1=O` [X L D4 B1] ([Mpa]L[dDap](2Thenoyl(5-Cl))P-Cysteamide; disulfide 1-C), which “% thrombin activity, Original screen” value is on record?
Its value is 107.5%.

And the “% thrombin activity, Repeat screen” value?
Its value is 100.9%.

`NC(=O)CC[C@@H]1NC(=O)CCSSCCNC(=O)C2(CCN(C(=O)c3ccc(Cl)s3)CC2)NC(=O)CCNC1=O` [X Q B2 D6] was tested. Which “% thrombin activity, Original screen” value did it give?
The value was 97.4%.

And the “% thrombin activity, Repeat screen” value?
Its value is 98.1%.

For `NC(=O)CC[C@@H]1NC(=O)CCSSCCNC(=O)C2(CCN(C(=O)c3ccc(Cl)s3)CC2)NC(=O)c2ccc(cc2)CNC1=O` [X Q B3 D6], which “% thrombin activity, Original screen” value is on record?
Its value is 87.5%.

And the “% thrombin activity, Repeat screen” value?
The value was 88.0%.

`O=C1CCSSCCNC(=O)C2CC(NC(=O)c3ccc(Cl)s3)CN2C(=O)CCNC(=O)C(CO)N1` (stereo not shown) [X S B2 D5] was tested. Which “% thrombin activity, Original screen” value did it give?
Its value is 96.6%.

And the “% thrombin activity, Repeat screen” value?
The value was 90.6%.

What does the source list for `CC(C)C1NC(=O)CCSSCCNC(=O)C(CNC(=O)c2ccc(Cl)s2)NC(=O)C2CCCN(C2)C1=O` (stereo not shown) [X V B4 D3]?
% thrombin activity, Original screen: 75.0%; % thrombin activity, Repeat screen: 73.4%

Which results are given for `O=C1CCSSCCNC(=O)C2(CCN(C(=O)c3ccc(Cl)s3)CC2)NC(=O)[C@@H]2CCCN2C(=O)[C@H](Cc2c[nH]c3ccccc23)N1` [X W B1 D6] ([Mpa]WP[Api](2Thenoyl(5-Cl))-Cysteamide; disulfide 1-C)?
% thrombin activity, Original screen: 105.0%; % thrombin activity, Repeat screen: 113.7%

Which “% thrombin activity, Original screen” value does the source give for `O=C1CCSSCCNC(=O)[C@@H](CNC(=O)c2ccc(Cl)s2)NC(=O)[C@H]2CCCN(C2)C(=O)[C@H](Cc2c[nH]c3ccccc23)N1` [X W B4 D4] here?
Its value is 108.0%.

And the “% thrombin activity, Repeat screen” value?
The value was 112.0%.

For `O=C1CCSSCCNC(=O)[C@@H](CNC(=O)c2ccc(Cl)s2)NC(=O)c2cccc(c2)CNC(=O)[C@H](Cc2c[nH]c3ccccc23)N1` [X W B5 D4], which “% thrombin activity, Original screen” value is on record?
The value was 103.8%.

And the “% thrombin activity, Repeat screen” value?
The value was 106.8%.

What does the source list for `O=C1CCSSCCNC(=O)[C@H](CNC(=O)c2ccc(Cl)s2)NC(=O)C2(CC2)CNC(=O)[C@H](Cc2c[nH]c3ccccc23)N1` [X W B6 D3]?
% thrombin activity, Original screen: 65.4%; % thrombin activity, Repeat screen: 56.1%

What does the source list for `O=C1CCSSCCNC(=O)C2CCCN2C(=O)C2CC(NC(=O)c3ccc(Cl)s3)CN2C(=O)C(Cc2c[nH]c3ccccc23)N1` (stereo not shown) [X W D5 B1] ([Mpa]W[ξPro(4-NHCO(5-Cl-2-thienyl))]P-Cysteamide; disulfide 1-C; configuration not given here)?
% thrombin activity, Original screen: 113.1%; % thrombin activity, Repeat screen: 119.4%

What does the source list for `O=C1CCSSCCNC(=O)C2CCCN(C2)C(=O)C(CCCCNC(=O)c2ccc(Cl)s2)NC(=O)C(Cc2ccc(O)cc2)N1` (stereo not shown) [X Y D1 B4]?
% thrombin activity, Original screen: 97.9%; % thrombin activity, Repeat screen: 97.0%

How did the “% thrombin activity, Original screen” value turn out when `O=C1CCSSCCNC(=O)C2CCCN2C(=O)C2CC(NC(=O)c3ccc(Cl)s3)CN2C(=O)C(Cc2ccc(O)cc2)N1` (stereo not shown) [X Y D5 B1] ([Mpa]Y[ξPro(4-NHCO(5-Cl-2-thienyl))]P-Cysteamide; disulfide 1-C; configuration not given here) was run?
The value was 92.3%.

What about the “% thrombin activity, Repeat screen” value of the same molecule?
The value was 97.0%.

With `CC1NC(=O)CCSSCCNC(=O)C(CCCCNC(=O)c2ccc(Cl)s2)NC(=O)C2CCCN2C1=O` (stereo not shown) [X a B1 D1] ([Mpa]APK(2Thenoyl(5-Cl))-Cysteamide; disulfide 1-C; configuration not given here) as the molecule, how does the “% thrombin activity, Original screen” value read?
The value was 106.8%.

What about the “% thrombin activity, Repeat screen” value of the same molecule?
The value was 115.5%.

How did the “% thrombin activity, Original screen” value turn out when `C[C@H]1NC(=O)CCSSCCNC(=O)[C@H](CCCCNC(=O)c2ccc(Cl)s2)NC(=O)CCNC1=O` [X a B2 D1] was run?
The value was 95.2%.

And the “% thrombin activity, Repeat screen” value?
The value was 101.4%.

Which results are given for `C[C@H]1NC(=O)CCSSCCNC(=O)[C@H]2CCCN(C2)C(=O)[C@H](CCCCNC(=O)c2ccc(Cl)s2)NC1=O` [X a D1 B4]?
% thrombin activity, Original screen: 107.0%; % thrombin activity, Repeat screen: 109.1%

For `CC1NC(=O)CCSSCCNC(=O)c2cccc(c2)CNC(=O)C(CCCCNC(=O)c2ccc(Cl)s2)NC1=O` (stereo not shown) [X a D1 B5], which “% thrombin activity, Original screen” value is on record?
The value was 102.5%.

What about the “% thrombin activity, Repeat screen” value of the same molecule?
The value was 104.4%.

With `CC1NC(=O)CCSSCCNC(=O)C2CCCN(C2)C(=O)C(CNC(=O)c2ccc(Cl)s2)NC1=O` (stereo not shown) [X a D3 B4] as the molecule, how does the “% thrombin activity, Original screen” value read?
Its value is 97.7%.

And the “% thrombin activity, Repeat screen” value?
Its value is 98.7%.

Which results are given for `CC1NC(=O)CCSSCCNC(=O)C2CCCN2C(=O)C(CNC(=O)c2ccc(Cl)s2)NC1=O` (stereo not shown) [X a D4 B1] ([Mpa]A[Dap](2Thenoyl(5-Cl))P-Cysteamide; disulfide 1-C; configuration not given here)?
% thrombin activity, Original screen: 108.4%; % thrombin activity, Repeat screen: 109.8%

Which “% thrombin activity, Original screen” value does the source give for `C[C@H]1NC(=O)CCSSCCNC(=O)c2ccc(cc2)CNC(=O)[C@@H]2C[C@H](NC(=O)c3ccc(Cl)s3)CN2C1=O` [X a D5 B3] here?
The value was 110.0%.

What about the “% thrombin activity, Repeat screen” value of the same molecule?
The value was 116.2%.
